Test results published in ChEMBL document CHEMBL3044714, “Studies on fused heterocyclic 3,6-disubstituted-1,2,4-triazolo-1,3,4-thiadiazoles: synthesis and biological evaluation” (Med Chem Res, 2011).

How the values were obtained:
Rattus norvegicus [1] = assay: Anti-inflammatory activity in Rattus norvegicus Wistar (rat) assessed as inhibition of carrageenan-induced paw edema at 20 mg/kg, po administered 30 min prior to carrageenan-induced measured after 3 hr relative to control; assay type: functional
Rattus norvegicus [2] = assay: Anti-inflammatory activity in Rattus norvegicus Wistar (rat) assessed as inhibition of carrageenan-induced paw edema at 20 mg/kg, po administered 30 min prior to carrageenan-induced measured after 2 hr relative to control; assay type: functional
Rattus norvegicus [3] = assay: Induction of lipid peroxidation in fasted Rattus norvegicus Wistar (rat) assessed as malondialdehyde level per 100 mg gastric mucosal tissue at 60 mg/kg, po measured after 17 hr by thiobarbuteric acid method; assay type: organism-based, Gastric mucosa; design: dose 60 mg/kg, route oral; conditions: in vivo
Rattus norvegicus [4] = assay: Ulcerogenic activity in fasted Rattus norvegicus Wistar (rat) assessed as ulcer index at 60 mg/kg, po measured after 17 hr; assay type: toxicity, organism-based; design: dose 60 mg/kg, route oral; conditions: in vivo
Mus musculus = assay: Analgesic activity in Mus musculus albino (mouse) assessed as protection against acetic acid-induced writhing at 25 mg/kg, ip administered 20 min prior to acetic acid-challenge measured for 20 min relative to control; assay type: functional; conditions: route intraperitoneal

Activity (Rattus norvegicus [3])	Compound	inhibition in vivo at 20 mg/kg (Rattus norvegicus [1])	inhibition in vivo at 20 mg/kg (Rattus norvegicus [2])	UI (Rattus norvegicus [4])	Activity (Mus musculus)
–	O=C(NCc1nn2c(Cc3ccccc3)nnc2s1)c1ccccc1	28%	21.2%	–	–
3.26 nmol	c1ccc(Cc2nnc3sc(-c4ccccc4Oc4ccccc4)nn23)cc1	56.3%	41%	0.91	30.43%
–	c1ccc(Cc2nnc3sc(Cc4cc5ccccc5[nH]4)nn23)cc1	41%	36.7%	–	–
–	O=C(NCc1nn2c(COc3ccccc3)nnc2s1)c1ccccc1	37.1%	35.9%	–	–
4.42 nmol	O=C(c1ccccc1)c1ccccc1-c1nn2c(COc3ccccc3)nnc2s1	63.3%	54.8%	1.25	43.48%
3.15 nmol	c1ccc(OCc2nnc3sc(Cc4cc5ccccc5[nH]4)nn23)cc1	50.5%	32.1%	0.83	40.22%
–	c1ccc(OCc2nnc3sc(Cc4cccc5ccccc45)nn23)cc1	24.6%	18.5%	–	–
3.95 nmol	O=C(CCc1nn2c(COc3ccccc3)nnc2s1)c1ccccc1	70.9%	56.5%	1.16	65.58%
–	O=C(NCc1nn2c(-c3ccccc3O)nnc2s1)c1ccccc1	32.3%	24.4%	–	–
–	Oc1ccccc1-c1nnc2sc(Cc3cccc4ccccc34)nn12	35%	28%	–	–
–	CC(=O)Oc1ccccc1C(=O)O [ASPIRIN]	–	–	–	61.96%
7.95 nmol	COc1ccc2c(c1)c(CC(=O)O)c(C)n2C(=O)c1ccc(Cl)cc1 [INDOMETHACIN]	66.9%	50.7%	2.25	–
